Assay results: patent US6481154B1, “Method of large-scale propagation of trees of genus Swietenia” (Sumitomo Forestry Co., Ltd., priority 2000, dated 2002)

What was measured:
[1] = test system: single shoots of Swietenia macrophylla; experiment: Rooting of single shoots on modified B5 rooting medium; type: cell-based
Method: A large number of shoots obtained in (4) are cut to single shoots, which were then transplanted to a rooting medium. […] Culturing temperature was 26±2° C. under illumination of fluorescent lamps for 16 hours per day (3,000 to 9,000 Lux).

[2] = test system: single shoots of Swietenia macrophylla; experiment: Rooting conditions (3): modified MS, then modified B5, then modified MS, one month each; type: cell-based; details: for Rooting rate (%) For first one month / Rooting rate (%) For second one month / Rooting rate (%) For third one month / Withering rate (%) For first one month / Withering rate (%) For second one month / Withering rate (%) For third one month: rooting conditions (3)
Method: A large number of shoots obtained in (4) were cut to single shoots which were cultured in the following procedures:
(3) The single shoots were cultured on a modified MS medium containing 0 to 10.0 mg/l of IBA for one month, then on a modified B5 medium containing 0 to 10.0 mg/l of IBA for one month and further on a modified MS medium containing 0 to 10.0 mg/l of IBA for one month.
All the above (1)-(4) cultures were conducted under conditions wherein a temperature was 26±2° C., a humidity was 60 to 90% and a light intensity was 3,000 to 9,000 Lux. Further, all the modified media in the above (1)-(4) contained 2.8 g/l of gelright.

SMILES: O=C(O)CCCc1c[nH]c2ccccc12 [IBA, 3-indole butyric acid]
- effectiveness for rooting ([1]; 2.5 mg/l of IBA): effective
- single shoots rooted ([1]; 1.0 to 5.0 mg/l of IBA, one to two months after the start of culturing): 18.5%
- Number of rooted single shoots ([1]; IBA 1.0 mg/l): 1/27
- Number of rooted single shoots ([1]; IBA 2.0 mg/l): 2/30
- Number of rooted single shoots ([1]; IBA 2.5 mg/l): 5/27
- Number of rooted single shoots ([1]; IBA 3.0 mg/l): 0/26
- Number of rooted single shoots ([1]; IBA 4.0 mg/l): 1/25
- Number of rooted single shoots ([1]; IBA 5.0 mg/l): 0/26
- Number of rooted single shoots ([1]; IBA 10.0 mg/l): 0/26
- effectiveness versus continuous culture on a single kind of medium ([2]; 2.5 mg/l of IBA, modified MS, modified B5, modified MS, one month each): more effective
- effectiveness for rooting ([2]; 2.5 mg/l of IBA, procedure (3)): particularly effective
- Rooting rate (%) For first one month ([2]; IBA 0.1 mg/l): 0.0%
- Rooting rate (%) For second one month ([2]; IBA 0.1 mg/l): 0.0%
- Rooting rate (%) For third one month ([2]; IBA 0.1 mg/l): 0.0%
- Withering rate (%) For first one month ([2]; IBA 0.1 mg/l): 7.7%
- Withering rate (%) For second one month ([2]; IBA 0.1 mg/l): 73.1%
- Withering rate (%) For third one month ([2]; IBA 0.1 mg/l): 84.6%
- Rooting rate (%) For first one month ([2]; IBA 1.0 mg/l): 0.0%
- Rooting rate (%) For second one month ([2]; IBA 1.0 mg/l): 10.0%
- Rooting rate (%) For third one month ([2]; IBA 1.0 mg/l): 40.0%
- Withering rate (%) For first one month ([2]; IBA 1.0 mg/l): 0.0%
- Withering rate (%) For second one month ([2]; IBA 1.0 mg/l): 30.0%
- Withering rate (%) For third one month ([2]; IBA 1.0 mg/l): 50.0%
- Rooting rate (%) For first one month ([2]; IBA 2.0 mg/l): 0.0%
- Rooting rate (%) For second one month ([2]; IBA 2.0 mg/l): 10.0%
- Rooting rate (%) For third one month ([2]; IBA 2.0 mg/l): 40.0%
- Withering rate (%) For first one month ([2]; IBA 2.0 mg/l): 0.0%
- Withering rate (%) For second one month ([2]; IBA 2.0 mg/l): 30.0%
- Withering rate (%) For third one month ([2]; IBA 2.0 mg/l): 40.0%
- Rooting rate (%) For first one month ([2]; IBA 2.5 mg/l): 0.0%
- Rooting rate (%) For second one month ([2]; IBA 2.5 mg/l): 40.0%
- Rooting rate (%) For third one month ([2]; IBA 2.5 mg/l): 70.0%
- Withering rate (%) For first one month ([2]; IBA 2.5 mg/l): 0.0%
- Withering rate (%) For second one month ([2]; IBA 2.5 mg/l): 0.0%
- Withering rate (%) For third one month ([2]; IBA 2.5 mg/l): 20.0%
- Rooting rate (%) For first one month ([2]; IBA 3.0 mg/l): 0.0%
- Rooting rate (%) For second one month ([2]; IBA 3.0 mg/l): 10.0%
- Rooting rate (%) For third one month ([2]; IBA 3.0 mg/l): 30.0%
- Withering rate (%) For first one month ([2]; IBA 3.0 mg/l): 0.0%
- Withering rate (%) For second one month ([2]; IBA 3.0 mg/l): 50.0%
- Withering rate (%) For third one month ([2]; IBA 3.0 mg/l): 50.0%
- Rooting rate (%) For first one month ([2]; IBA 4.0 mg/l): 0.0%
- Rooting rate (%) For second one month ([2]; IBA 4.0 mg/l): 0.0%
- Rooting rate (%) For third one month ([2]; IBA 4.0 mg/l): 0.0%
- Withering rate (%) For first one month ([2]; IBA 4.0 mg/l): 20.0%
- Withering rate (%) For second one month ([2]; IBA 4.0 mg/l): 60.0%
- Withering rate (%) For third one month ([2]; IBA 4.0 mg/l): 80.0%
- Rooting rate (%) For first one month ([2]; IBA 5.0 mg/l): 0.0%
- Rooting rate (%) For second one month ([2]; IBA 5.0 mg/l): 0.0%
- Rooting rate (%) For third one month ([2]; IBA 5.0 mg/l): 0.0%
- Withering rate (%) For first one month ([2]; IBA 5.0 mg/l): 40.0%
- Withering rate (%) For second one month ([2]; IBA 5.0 mg/l): 50.0%
- Withering rate (%) For third one month ([2]; IBA 5.0 mg/l): 100.0%
- Rooting rate (%) For first one month ([2]; IBA 10.0 mg/l): 0.0%
- Rooting rate (%) For second one month ([2]; IBA 10.0 mg/l): 0.0%
- Rooting rate (%) For third one month ([2]; IBA 10.0 mg/l): 0.0%
- Withering rate (%) For first one month ([2]; IBA 10.0 mg/l): 50.0%
- Withering rate (%) For second one month ([2]; IBA 10.0 mg/l): 100.0%
- Withering rate (%) For third one month ([2]; IBA 10.0 mg/l): 100.0%
- single shoots rooted ([2]; procedure (3), 3 months after the start of culturing, 2.5 mg/l of IBA): 70.0%
